The source of these data is patent publication US20230255970A1, “COMPOSITIONS AND METHODS FOR TREATING PROLIFERATIVE DISEASES” (The Broad Institute, Inc., priority 2020, published 2023).

Where two headings read alike, the source gives them in different places.

For one experiment, the system named is KP230 cells. Briefly: Proliferation assay, KP230 cells. It counts as cell-based, mouse. The following applies: 10 μM daily for 72 hours. An excerpt:
YAP1 cell culture and treatments: Eisinger lab: Murine KP230 cells, a Yap1-dependent cancer cell line, were derived from a tumor from the KP mouse model (Kras^G12/D; Trp53^f/fl), as described in Eisinger-Mathason, T. S. K. et al., Proc. Natl. Acad. Sci. U.S.A 112 (2015): E3402-11, which is hereby incorporated by reference in its entirety. STS-109 UPS cells were derived from a human UPS tumor and validated by Rebecca Gladdy, MD (Sinai Health System, Toronto, Ontario, Canada). TC32 cells were a gift from Patrick Grohar, MD, PhD (Children's Hospital of Philadelphia). HT-1080, HCT-116, and HEK293T cells were purchased from ATCC. KP230, HT-1080, and HEK-293T cells were grown in DMEM with 10% FBS, 1% L-glutamine, and 1% penicillin/streptomycin (P/S). STS-109 cells were cultured in DMEM with 20% FBS, 1% L-glutamine, and 1% P/S. TC32 cells were grown in RPMI with 10% FBS, 1% L-glutamine, and 1% P/S. HCT-116 cells were cultured in McCoy's 5A medium with 10% FBS and 1% P/S. All cells were confirmed to be negative for mycoplasma contamination and were maintained in an incubator at 37C with 5% CO2. For experimental purposes, cells were cultured for up to 20 passages before being discarded, and were grown to approximately 50% confluence to circumvent the effects of high cell density on Yap1 expression and activity. All cell lines in the Eisinger laboratory were treated with 10 μM of each inhibitor or an equivalent volume of DMSO every 24 hours for 3 days, except for STS-109 cells, which were treated daily for 8 days.
NB4A treatment: Cells were treated with 10 μM of each inhibitor or an equivalent volume of DMSO every 24 hours for 3-8 days, and counted with a hemocytometer with trypan blue exclusion daily (KP230, HT-1080, TC32, HCT-116), or every 2 days (STS-109).

Another experiment has as its system YAP1 mRNA. The following applies: cited from earlier work.
In experiment [1] the test system is TRAF2 overexpression in U2OS cells. Briefly: Cell Painting morphological profile matching to TRAF2 overexpression. The format is cell-based, human. The following applies: Pearson correlation of Cell Painting signatures, U2OS cells. In outline:
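Compound-treated U2OS cells were stained with six fluorescent labels and imaged, and morphological profiles were standardized plate-wise against controls. Replicate profiles were averaged into signatures. Compound and gene-overexpression signatures were matched by Pearson correlation.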

The subject of a further experiment is STK3/MST2 overexpression. Briefly: Cell Painting morphological profile matching to STK3/MST2 overexpression. It counts as cell-based, human. An excerpt:
To profile each exogenously expressed gene (or allele therein), the previously developed image-based profiling assay, called Cell Painting was used (see Bray et al., Nat. Protoc. 2016 September; 11(9): 1757-1774). […] In five replicates in 384-well plate format, U2OS cells (human bone osteosarcoma cells), chosen for their flat morphology and previous validation in the assay, were infected with an arrayed ‘reference’ expression library of 323 open reading frame (ORF) constructs of partially characterized functions, a subset of which have been previously described. […]
Using the morphological signature found for YAP1 and TAZ, data mining was performed seeking compounds that effected the same (or opposite) morphology by computationally matching the morphological signature to a public database of small molecule signatures (see Caicedo et al., Nat. Meth. 2017 September; 14(9), 849-63, doi:10.1038/nMeth.4397, incorporated herein by reference). Specifically, the intersection of features in the two datasets was determined, resulting in 605 features (1399 features in the genetic screen, without any feature selection; and 729 features in the compound screen, obtained using the findCorrelation function with a threshold of 0.90 on the original 1,783 dimensional feature set). […]

A further experiment concerns Yap1. Briefly: Nuclear Yap1 immunofluorescence in KP230 cells. It counts as cell-based, mouse. An excerpt:
YAP1 cell culture and treatments: Eisinger lab: Murine KP230 cells, a Yap1-dependent cancer cell line, were derived from a tumor from the KP mouse model (Kras^G12/D; Trp53^f/fl), as described in Eisinger-Mathason, T. S. K. et al., Proc. Natl. Acad. Sci. U.S.A 112 (2015): E3402-11, which is hereby incorporated by reference in its entirety. STS-109 UPS cells were derived from a human UPS tumor and validated by Rebecca Gladdy, MD (Sinai Health System, Toronto, Ontario, Canada). TC32 cells were a gift from Patrick Grohar, MD, PhD (Children's Hospital of Philadelphia). HT-1080, HCT-116, and HEK293T cells were purchased from ATCC. KP230, HT-1080, and HEK-293T cells were grown in DMEM with 10% FBS, 1% L-glutamine, and 1% penicillin/streptomycin (P/S). […]
YAP1-related immunofluorescence and image analysis: Cells were grown on poly-L-lysine-coated chamber slides were fixed in 4% PFA (15 minutes at room temperature), permeabilized with 0.5% Triton-X100/PBS (15 minutes at room temperature), and blocked with 5% goat serum (Vector Laboratories S-1000; 1 hour at room temperature). […] The ratio of nuclear to total Yap1 expression was determined after subtracting out background GFP signal from no-primary antibody controls.

As for `c1ccc(CNc2ncnc3ccccc23)cc1` [BRD-K43796186, N-benzylquinazolin-4-amine], the proliferation result in the experiment with KP230 cells is recorded as “inhibited the proliferation”. For the same compound, the “YAP1 mRNA z-score” value is on record as around -0.7 with YAP1 mRNA (A375 cells, 6 and 24 hours); 3.16 in the experiment on YAP1 mRNA (HT29 cells, six hours). Moreover, in the experiment on YAP1 mRNA (most cell types in the Connectivity Map), the “YAP1 mRNA” value was “unaffected”. Besides, the “Corr. to TRAF2” value in experiment [1] was −0.3778. For the same compound, the “Morphological profile correlation with overexpression of STK3/MST2” value in the experiment with STK3/MST2 overexpression is recorded as −0.49. In addition, the Yap1 nuclear localization entry in the experiment with Yap1 is listed as “significantly attenuated”.
